The record followed here is patent US10106515B2, “1-(cyclopent-2-en-1-yl)-3-(2-hydroxy-3-(arylsulfonyl)phenyl)urea derivatives as CXCR2 inhibitors” (GLAXOSMITHKLINE INTELLECTUAL PROPERTY DEVELOPMENT LIMITED, priority 2014, dated 2018).

Each structure is given as a SMILES string. Counter-ions that a name gives are not always drawn.

The target of the experiment is T1, recombinant human CXCR2 (Homo sapiens, UniProt P25025).
T1 construct: TEV protease site; Gal4-VP16 transcription factor
T1 sequence (P25025 1-360): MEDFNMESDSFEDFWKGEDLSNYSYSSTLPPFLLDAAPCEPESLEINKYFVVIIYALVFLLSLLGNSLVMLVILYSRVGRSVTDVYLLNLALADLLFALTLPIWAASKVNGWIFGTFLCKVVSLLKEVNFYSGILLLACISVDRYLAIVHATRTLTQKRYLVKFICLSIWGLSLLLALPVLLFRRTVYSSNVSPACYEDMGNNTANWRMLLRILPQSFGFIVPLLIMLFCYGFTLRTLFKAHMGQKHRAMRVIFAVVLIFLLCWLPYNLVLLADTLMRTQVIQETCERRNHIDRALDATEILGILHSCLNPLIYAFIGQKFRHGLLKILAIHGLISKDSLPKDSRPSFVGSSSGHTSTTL
In words: CXCR2 Tango assay. Format: cell-based. Conditions: mean pIC50 of multiple test results; stimulated with 80 nM hCXCL1; reporter gene blue/green emission ratio; read-out: pIC50 (CXCR2 Tango assay) (converted). The text has this:
The assay measures ligand-induced activation of the receptor CXCR2 in a stable cell line containing the recombinant human CXCR2 linked to a TEV protease site and a Gal4-VP16 transcription factor (Invitrogen). Ligand binding to the receptor results in the recruitment of arrestin proteins (tagged with protease) to the receptor and triggers the release of a tethered transcription factor. The transcription factor enters the nucleus and activates the transcription of the reporter gene. The ability of a compound to inhibit CXCR2 activation is indirectly assessed by measuring the reporter gene activity.
A vial of cryopreserved cells was removed from liquid nitrogen and rapidly thawed in a water bath at 37° C. with gentle agitation. The contents of the vial were transferred drop-wise into Thawing Medium in a sterile 15 ml conical tube and then centrifuged at 1000 rpm for 4-5 min. Then the cell pellets were resuspended in Assay Medium at a density of ˜200,000 cells/ml. All test compounds were dissolved in DMSO at a concentration of 10 mM and were prepared in 100% DMSO to provide 10 point dose response curves. A reference CXCR2 antagonist was added to wells in row 2, columns 1-5 & 7-11. Exemplified compounds 1-4, 7, 8-10, 13-22, 24-26, 28-30, 32, 33, 36, 37, 40, 42-44. 95-110, 115-118, 120, 121, 125, 126, 129-134, 137, 138, 140, 142, 147-149, 153-157, 159-162, 163-166, 168, 170, 172, 174-180 and 202 were tested using the CXCR2 antagonist sodium 3-chloro-6-(3-(2,3-dichlorophenyl)ureido)-2-sulfamoylphenolate as reference compound (Reference Compound 1) (published International patent application WO2002/079122). […] Test compounds were added to wells in row 2, columns 13-17 & 19-23 and rows 3-15, columns 1-5 & 7-11/13-17 & 19-23 (columns 6 and 18 as positive controls and un-stimulated controls respectively; columns 12 and 24 as cell-free control). Compounds in solution were added to the assay plate (Greiner 781090) using an Echo (Labcyte) concentration-response program (50 nl/well). The cell-free, un-stimulated and positive controls were loaded with 50 nl/well pure DMSO to ensure that the DMSO concentration was constant across the plate for all assays. Using Multi-drop Combi (Thermo) with standard cassette, 50 μl of Assay Medium was added to each well in the cell-free controls (columns 12 and 24); 50 μl of the cell suspension without hCXCL1 (a CXCR2 ligand) was added to each well in column 18 of the plate (˜10,000 cells per well); and 50 μl of the cell suspension with 80 nM hCXCL1 was added to the rest of wells of the plate (˜10,000 cells per well). The cells were incubated overnight at 37° C./5% CO2. 10 μl of 6× substrate mixture (LiveBLAzer™-FRET B/G substrate (CCF4-AM) Cat # K1096 from Invitrogen, Inc.) was added to each well using Multi-drop Combi (Thermo) with small-tube cassette and the plates incubated at room temperature for 2 h in the dark. The plate was finally read on EnVision using one excitation channel (409 nm) and two emission channels (460 nm and 530 nm).
The blue/green emission ratio (460 nm/530 nm) was calculated for each well, by dividing the background-subtracted Blue emission values by the background-subtracted Green emission values. The dose response curve was based on sigmoidal dose-response model. All ratio data was normalized based upon the maximum emission ratio of positive control (hCXCL1) and minimum emission ratio of negative control (DMSO) on each plate. The intrinsic activity (IA) of each compound would be the normalized percentage of its maximum response after curve fitting.
All exemplified compounds (except for Compounds 203 and 204) were tested in the CXCR2 Tango assay or a similar assay described above. The data mentioned below represents a mean pIC 50 value of multiple test results. It is understood that the data illustrated below may have reasonable variation depending on the specific conditions and procedures used by the person conducting the testing.
In the case of `CC1=CCC[C@H]1NC(=O)Nc1ccc(Cl)c(S(=O)(=O)[C@H]2CC[C@H](O)C2)c1O` (racemic) [Compound 45, (±)-trans-1-(4-chloro-2-hydroxy-3-((3-hydroxycyclopentyl)sulfonyl)phenyl)-3-((R)-2-methylcyclopent-2-en-1-yl)urea], the IC50 is at most 1 nM.

For `CC1=CCC[C@H]1NC(=O)Nc1ccc(Cl)c(S(=O)(=O)C2CCC[C@@H]2O)c1O` (mixture of isomers) [Compound 51, (±)trans-1-(4-chloro-2-hydroxy-3-((2-hydroxycyclopent-yl)sulfonyl)phenyl)-3-((R)-2-methylcyclopent-2-en-1-yl)urea, trifluoroacetic acid salt], the IC50 is at most 1 nM.

As for `COC1CCCCC1S(=O)(=O)c1c(Cl)ccc(NC(=O)NC2CCC=C2C)c1O` (racemic) [Compound 150, (±)trans-1-(4-chloro-2-hydroxy-3-((2-methoxycyclohex-yl)sulfonyl)phenyl)-3-((R)-2-methylcyclopent-2-en-1-yl)urea], the IC50 is at most 10 nM.

Take `C[C@]1(S(=O)(=O)c2c(Cl)ccc(NC(=O)N[C@@H]3CCC=C3Cl)c2O)CCOC1` (single isomer, unassigned) [Compound 197]: the IC50 is at most 10 nM.

For the molecule `C[C@@]1(S(=O)(=O)c2c(Cl)ccc(NC(=O)N[C@@H]3CCC=C3Cl)c2O)CCOC1` (single isomer, unassigned) [Compound 198], the IC50 is at most 10 nM.

For `CO[C@@H]1CC[C@@H](S(=O)(=O)c2c(Cl)ccc(NC(=O)N[C@@H]3CCC=C3C)c2O)C1` (stereo in doubt) [Compound 143, trans-1-(4-chloro-2-hydroxy-3-((3-methoxycyclopent-yl)sulfonyl)phenyl)-3-((R)-2-methylcyclopent-2-en-1-yl)urea], the IC50 is at most 1 nM.

For `CC(C)(C(F)(F)F)S(=O)(=O)c1c(Cl)ccc(NC(=O)NC2C=CCC2)c1O` (centres unmarked) [Compound 1, 1-(4-chloro-2-hydroxy-3-((1,1,1-trifluoro-2-methylpropan-2-yl)sulfonyl)phenyl)-3-(cyclopent-2-en-1-yl)urea], the IC50 is at most 10 nM.

With `CC(C)(C(F)(F)F)S(=O)(=O)c1c(Cl)ccc(NC(=O)NC2CCC=C2Cl)c1O` (centres unmarked) [Compound 2, 1-(4-chloro-2-hydroxy-3-((1,1,1-trifluoro-2-methylpropan-2-yl)sulfonyl)phenyl)-3-(2-chlorocyclopent-2-en-1-yl)urea], the IC50 is at most 1 nM.

For the molecule `CC(C)(C)S(=O)(=O)c1c(Cl)ccc(NC(=O)NC2CCC=C2Cl)c1O` (centres unmarked) [Compound 3, 1-(3-(tert-butylsulfonyl)-4-chloro-2-hydroxyphenyl)-3-(2-chlorocyclopent-2-en-1-yl)urea], the IC50 was at most 10 nM.

Take `CC(C)(c1ccccn1)S(=O)(=O)c1c(Cl)ccc(NC(=O)NC2CCC=C2Cl)c1O` (centres unmarked) [Compound 4, 1-(4-chloro-2-hydroxy-3-((2-(pyridin-2-yl)propan-2-yl)sulfonyl)phenyl)-3-(2-chlorocyclopent-2-en-1-yl)urea, trifluoroacetic acid salt]: the IC50 was at most 10 nM.

In the case of `CC(C)(CCO)S(=O)(=O)c1c(Cl)ccc(NC(=O)N[C@@H]2CCC=C2Cl)c1O` [Compound 6, (R)-1-(4-chloro-2-hydroxy-3-((4-hydroxy-2-methylbutan-2-yl)sulfonyl)phenyl)-3-(2-chlorocyclopent-2-en-1-yl)urea], the IC50 was at most 1 nM.

With `CC(C)(CF)S(=O)(=O)c1c(Cl)ccc(NC(=O)NC2C=CCC2)c1O` (centres unmarked) [Compound 9, 1-(4-chloro-3-((1-fluoro-2-methylpropan-2-yl)sulfonyl)-2-hydroxyphenyl)-3-(cyclopent-2-en-1-yl)urea], the IC50 was at most 10 nM.

As to `CC(C)(CF)S(=O)(=O)c1c(Cl)ccc(NC(=O)NC2CCC=C2Cl)c1O` (centres unmarked) [Compound 10, 1-(4-chloro-3-((1-fluoro-2-methylpropan-2-yl)sulfonyl)-2-hydroxyphenyl)-3-(2-chlorocyclopent-2-en-1-yl)urea], the IC50 is at most 10 nM.

On to `CC(C)(CO)S(=O)(=O)c1c(Cl)ccc(NC(=O)N[C@@H]2CCC=C2Cl)c1O` [Compound 12, (R)-1-(4-chloro-2-hydroxy-3-((1-hydroxy-2-methylpropan-2-yl)sulfonyl)phenyl)-3-(2-chlorocyclopent-2-en-1-yl)urea], for which the IC50 was at most 10 nM.

Turning to `CC(C)(F)S(=O)(=O)c1c(Cl)ccc(NC(=O)NC2C=CCC2)c1O` (centres unmarked) [Compound 14, 1-(4-chloro-3-((2-fluoropropan-2-yl)sulfonyl)-2-hydroxyphenyl)-3-(cyclopent-2-en-1-yl)urea], the IC50 is at most 10 nM.

For `CC(C)(F)S(=O)(=O)c1c(Cl)ccc(NC(=O)NC2CCC=C2Cl)c1O` (centres unmarked) [Compound 15, 1-(4-chloro-3-((2-fluoropropan-2-yl)sulfonyl)-2-hydroxyphenyl)-3-(2-chlorocyclopent-2-en-1-yl)urea], the IC50 was at most 10 nM.

Take `CC1=C(Cl)CCC1NC(=O)Nc1ccc(Cl)c(S(=O)(=O)C(C)C)c1O` (centres unmarked) [Compound 16, 1-(4-chloro-2-hydroxy-3-(isopropylsulfonyl)phenyl)-3-(3-chloro-2-methylcyclopent-2-en-1-yl)urea]: the IC50 was at most 10 nM.

In the case of `CC1=C(F)CCC1NC(=O)Nc1ccc(Cl)c(S(=O)(=O)C(C)C)c1O` (centres unmarked) [Compound 17, 1-(4-chloro-2-hydroxy-3-(isopropylsulfonyl)phenyl)-3-(3-fluoro-2-methylcyclopent-2-en-1-yl)urea], the IC50 was at most 10 nM.

On to `CC(C)S(=O)(=O)c1c(Cl)ccc(NC(=O)NC2C=CCC2)c1O` (centres unmarked) [Compound 18, 1-(4-chloro-2-hydroxy-3-(isopropylsulfonyl)phenyl)-3-(cyclopent-2-en-1-yl)urea], for which the IC50 was at most 10 nM.

On to `CC(C)S(=O)(=O)c1c(Cl)ccc(NC(=O)NC2CCC=C2Cl)c1O` (centres unmarked) [Compound 21, 1-(4-chloro-2-hydroxy-3-(isopropylsulfonyl)phenyl)-3-(2-chlorocyclopent-2-en-1-yl)urea], for which the IC50 is at most 1 nM.

Turning to `CC(C)S(=O)(=O)c1c(Cl)ccc(NC(=O)NC2CCC=C2F)c1O` (centres unmarked) [Compound 22, 1-(4-chloro-2-hydroxy-3-(isopropylsulfonyl)phenyl)-3-(2-fluorocyclopent-2-en-1-yl)urea], the IC50 was at most 10 nM.

On to `CC(c1ccccn1)S(=O)(=O)c1c(Cl)ccc(NC(=O)NC2C=CCC2)c1O` (centres unmarked) [Compound 24, 1-(4-chloro-2-hydroxy-3-((1-(pyridin-2-yl)ethyl)sulfonyl)phenyl)-3-(cyclopent-2-en-1-yl)urea, trifluoroacetic acid salt], for which the IC50 is at most 10 nM.

With `CC1=CCCC1NC(=O)Nc1ccc(Cl)c(S(=O)(=O)C(C)c2ccccn2)c1O` (centres unmarked) [Compound 25, 1-(4-chloro-2-hydroxy-3-((1-(pyridin-2-yl)ethyl)sulfonyl)phenyl)-3-(2-methylcyclopent-2-en-1-yl)urea, trifluoroacetic acid salt], the IC50 is at most 10 nM.
